Laboratory results from patent publication US20100008938A1, “SELF ASSEMBLING AMPHIPHILIC POLYMERS AS ANTIVIRAL AGENTS” (priority 2007, published 2010).

Experiments:
[1] = Solubilization of dyes in aqueous polymer solution vs water, TLC spot comparison; conditions: for concentration in 50 mg/ml polymer: 50 mg/ml aqueous C16-Polymer A (Example 1), approximate, from TLC spot intensity
[2] = test system: ATCC VR-1520 (H2N1) Human influenza virus

Row | Compound | concentration in 50 mg/ml polymer [1] | solubility ([1]; deionized water (unbuffered), water, thermodynamic from solid) [µg/mL] | concentration in H2O ([1]; deionized water, unbuffered, room temperature) [ng/mL] | body weight loss ([2]; 7 days) [%] | increase in survival time ([2]; mouse, in vivo) [h]
1 | O=C1OC2(c3cc(Cl)c(O)cc3Oc3cc(O)c(Cl)cc32)c2ccccc21 [Dichlorofluorescein, dichlorofluorescein] | approximately 5 mg/ml | ≥ 10 |  |  | 
2 | Cc1ccccc1/N=N/c1ccc(/N=N/c2c(O)ccc3ccccc23)c(C)c1 [Sudan IV] | approximately 0.2 mg/ml |  | 0 |  | 
3 | COC1(C(=O)O)CC(O)C(N)C(C(O)C(O)CO)O1 (stereo not drawn) [positive control, neuraminic acid β-methyl glycoside] |  |  |  | −9.8 | 2.94
